Literature values as cited in patent US20180250285A1 (Teva Pharmaceutical Industries Ltd., priority 2012, published 2018).

What was measured:
[1] = in vivo
[2] = system: Huntington's disease patients

oral bioavailability [1]	SMILES	symptomatic relief incl. improved hand movements, gait and balance (patients with HD)	tertiary endpoint UHDRS-TMS (changes in motor function) and individual items within the mMS (gait, dysarthria) ([2]; 45 mg daily or 45 mg twice daily for 6 months)	primary endpoint: effect on a specific subset of motor symptoms defined in the mMS ([2]; at 26 weeks, 45 mg daily or 45 mg twice daily)
high	CCN(C(=O)c1c(O)c2c(Cl)cccc2n(C)c1=O)c1ccccc1 [Laquinimod]			
	CCCN1CCC(c2cccc(S(C)(=O)=O)c2)CC1 [pridopidine, 4-[3-(methylsulfonyl)phenyl]-1-propyl-piperidine]	significant symptomatic relief	statistically significant effect of treatment	not met
